Reference: patent US20250011368A1, “DLL3 TARGETING PEPTIDES AND CONSTRUCTS THEREOF” (MARIANA ONCOLOGY INC., priority 2023, published 2025)
Numbered stars: 1 amine (or outer) side, 2 acyl side, 3 side chain; on linkers, the order of the positions; unused ones are H or OH. Bridge positions count the residues as written; N and C are the ends. Square brackets hold non-standard residues; d marks the D form. Peptide text beside a SMILES is read from it. * marks the point of attachment. X4 = O=C(O)CN1CCN(CC(=O)O)CCN(CC(=O)N[C@H]2CC[C@H](CC(=O)*)CC2)CCN(CC(=O)O)CC1; Ala(piperidin-4-yl) = O=C([C@H](CC1CCN([*:3])CC1)N[*:1])[*:2]; DOTA = O=C(O)CN1CCN(CC(=O)O)CCN(CC(=O)*)CCN(CC(=O)O)CC1; Trp(7-Me) = Cc1cccc2c(C[C@H](N)C(=O)O)c[nH]c12; 2Nal = N[C@@H](Cc1ccc2ccccc2c1)C(=O)O; tBuAla = CC(C)(C)C[C@H](N)C(=O)O; 3Pal = N[C@@H](Cc1cccnc1)C(=O)O; 4Pal = N[C@@H](Cc1ccncc1)C(=O)O; Chg = N[C@H](C(=O)O)C1CCCCC1; Tle = CC(C)(C)[C@H](N)C(=O)O

What follows are compounds tested against T1, human DLL3 (Homo sapiens, UniProt Q9NYJ7) (assay: Affinity determination by Surface Plasmon Resonance (SPR)). Settings: 25° C., biotinylated human DLL3 immobilized on streptavidin sensor chip, 1:1 binding model; read-out: SPR KD.
T1 sequence (Q9NYJ7 27-618): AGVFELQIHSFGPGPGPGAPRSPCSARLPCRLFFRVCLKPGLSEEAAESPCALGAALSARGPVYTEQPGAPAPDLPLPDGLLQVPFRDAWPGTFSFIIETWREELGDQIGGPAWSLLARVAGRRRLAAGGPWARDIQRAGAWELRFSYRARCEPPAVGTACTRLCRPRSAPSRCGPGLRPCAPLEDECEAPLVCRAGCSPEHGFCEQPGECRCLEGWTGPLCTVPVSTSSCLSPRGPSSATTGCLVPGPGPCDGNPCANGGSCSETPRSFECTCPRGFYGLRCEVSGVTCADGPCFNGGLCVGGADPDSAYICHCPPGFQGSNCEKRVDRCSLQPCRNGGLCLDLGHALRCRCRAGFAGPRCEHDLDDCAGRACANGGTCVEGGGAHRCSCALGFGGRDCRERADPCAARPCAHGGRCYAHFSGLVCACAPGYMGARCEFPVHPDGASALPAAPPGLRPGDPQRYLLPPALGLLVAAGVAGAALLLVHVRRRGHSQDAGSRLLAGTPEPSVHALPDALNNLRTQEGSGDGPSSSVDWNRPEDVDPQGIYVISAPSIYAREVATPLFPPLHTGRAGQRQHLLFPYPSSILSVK
Type: binding
How it was run: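 Biotinylated human DLL3 was captured on a streptavidin chip with a reference surface. Compounds at several concentrations were injected at 100 μL/minute in phosphate buffer (137 mM NaCl, 2.7 mM KCl, 0.05% P20, 2% DMSO). Affinity and kinetics came from 1:1 model fits of the sensorgrams.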

Kd, < 1 nM:
CC(=O)N[C@@H](Cc1c[nH]c2ccccc12)C(=O)N[C@H](C(=O)N[C@H](C(=O)N[C@H]1CSSC[C@@H](C(=O)N[C@@H](Cc2c[nH]c3ccccc23)C(=O)N2CCC[C@H]2C(=O)N[C@H](CCCCNC(=O)CN2CCN(CC(=O)O)CCN(CC(=O)O)CCN(CC(=O)O)CC2)C(N)=O)NC(=O)[C@H](CC(=O)O)NC(=O)[C@H](Cc2cnc[nH]2)NC(=O)[C@H](Cc2ccc3ccccc3c2)NC(=O)[C@H](CC(N)=O)NC(=O)[C@H](CC2CCNCC2)NC1=O)C(C)(C)C)[C@@H](C)O [compound 281, Ac-W-T-(Tbg)-C(3)-[3-(4-piperidinyl)-Ala]-N-(2Nal)-H-D-C(3)-W-P-[D-Lys(DOTA)]-NH2] (Ac-WT[Tle]C[Ala(piperidin-4-yl)]N[2Nal]HDCWP[dK](DOTA)-NH2; disulfide 4-10)
CC(=O)N[C@@H](Cc1c[nH]c2ccccc12)C(=O)N[C@H](C(=O)N[C@@H](CC(C)(C)C)C(=O)N[C@H]1CSSC[C@@H](C(=O)N[C@@H](Cc2c[nH]c3ccccc23)C(=O)N2CCC[C@H]2C(=O)N[C@H](CCCCNC(=O)CN2CCN(CC(=O)O)CCN(CC(=O)O)CCN(CC(=O)O)CC2)C(N)=O)NC(=O)[C@H](CC(=O)O)NC(=O)[C@H](Cc2cnc[nH]2)NC(=O)[C@H](Cc2ccc3ccccc3c2)NC(=O)[C@H](CC(N)=O)NC(=O)[C@H](CC2CCNCC2)NC1=O)[C@@H](C)O [compound 282, Ac-W-T-(t-Bu-Ala)-C(3)-[3-(4-piperidinyl)-Ala]-N-(2Nal)-H-D-C(3)-W-P-[D-Lys(DOTA)]-NH2] (Ac-WT[tBuAla]C[Ala(piperidin-4-yl)]N[2Nal]HDCWP[dK](DOTA)-NH2; disulfide 4-10)
CC(=O)N[C@@H](Cc1c[nH]c2ccccc12)C(=O)N[C@H](C(=O)N[C@H](C(=O)N[C@H]1CSSC[C@@H](C(=O)N[C@@H](Cc2c[nH]c3ccccc23)C(=O)N2CCC[C@H]2C(=O)N[C@H](CCCCNC(=O)CN2CCN(CC(=O)O)CCN(CC(=O)O)CCN(CC(=O)O)CC2)C(N)=O)NC(=O)[C@H](CC(N)=O)NC(=O)[C@H](Cc2cnc[nH]2)NC(=O)[C@H](Cc2ccc3ccccc3c2)NC(=O)[C@H](CC(N)=O)NC(=O)[C@H](CC2CCNCC2)NC1=O)C1CCCCC1)[C@@H](C)O [compound 283, Ac-W-T-(Chg)-C(3)-[3-(4-piperidinyl)-Ala]-N-(2Nal)-H-(Asn)-C(3)-W-P-[D-Lys(DOTA)]-NH2] (Ac-WT[Chg]C[Ala(piperidin-4-yl)]N[2Nal]HNCWP[dK](DOTA)-NH2; disulfide 4-10)
CC(=O)N[C@@H](Cc1c[nH]c2ccccc12)C(=O)N[C@H](C(=O)N[C@H](C(=O)N[C@H]1CSSC[C@@H](C(=O)N[C@@H](Cc2c[nH]c3ccccc23)C(=O)N2CCC[C@H]2C(=O)N[C@H](CCCCNC(=O)CN2CCN(CC(=O)O)CCN(CC(=O)O)CCN(CC(=O)O)CC2)C(N)=O)NC(=O)[C@H](C)NC(=O)[C@H](Cc2cnc[nH]2)NC(=O)[C@H](Cc2ccc3ccccc3c2)NC(=O)[C@H](CC(N)=O)NC(=O)[C@H](CC2CCNCC2)NC1=O)C1CCCCC1)[C@@H](C)O [compound 284, Ac-W-T-(Chg)-C(3)-[3-(4-piperidinyl)-Ala]-N-(2Nal)-H-(Ala)-C(3)-W-P-[D-Lys(DOTA)]-NH2] (Ac-WT[Chg]C[Ala(piperidin-4-yl)]N[2Nal]HACWP[dK](DOTA)-NH2; disulfide 4-10)
CC(=O)N[C@@H](Cc1c[nH]c2ccccc12)C(=O)N[C@H](C(=O)N[C@H](C(=O)N[C@H]1CSSC[C@@H](C(=O)N[C@@H](Cc2c[nH]c3ccccc23)C(=O)N2CCC[C@H]2C(=O)N[C@H](CCCCNC(=O)CN2CCN(CC(=O)O)CCN(CC(=O)O)CCN(CC(=O)O)CC2)C(N)=O)NC(=O)[C@H]([C@@H](C)O)NC(=O)[C@H](Cc2cnc[nH]2)NC(=O)[C@H](Cc2ccc3ccccc3c2)NC(=O)[C@H](CC(N)=O)NC(=O)[C@H](CC2CCNCC2)NC1=O)C1CCCCC1)[C@@H](C)O [compound 285, Ac-W-T-(Chg)-C(3)-[3-(4-piperidinyl)-Ala]-N-(2Nal)-H-(Thr)-C(3)-W-P-[D-Lys(DOTA)]-NH2] (Ac-WT[Chg]C[Ala(piperidin-4-yl)]N[2Nal]HTCWP[dK](DOTA)-NH2; disulfide 4-10)
CC(=O)N[C@@H](Cc1c[nH]c2ccccc12)C(=O)N[C@H](C(=O)N[C@H](C(=O)N[C@H]1CSSC[C@@H](C(=O)N[C@@H](Cc2c[nH]c3ccccc23)C(=O)N2CCC[C@H]2C(=O)N[C@H](CCCCNC(=O)C[C@H]2CC[C@H](NC(=O)CN3CCN(CC(=O)O)CCN(CC(=O)O)CCN(CC(=O)O)CC3)CC2)C(N)=O)NC(=O)[C@H](CC(=O)O)NC(=O)[C@H](Cc2c[nH]cn2)NC(=O)[C@H](Cc2ccc3ccccc3c2)NC(=O)[C@H](CC(N)=O)NC(=O)[C@H](CC2CCNCC2)NC1=O)C1CCCCC1)[C@@H](C)O [compound 286, Ac-W-T-(Chg)-C(3)-[3-(4-piperidinyl)-Ala]-N-(2Nal)-H-D-C(3)-W-P-[D-Lys(Chx-DOTA)]-NH2] (Ac-WT[Chg]C[Ala(piperidin-4-yl)]N[2Nal]HDCWP[dK](X4)-NH2; disulfide 4-10)
CC(=O)N[C@@H](Cc1c[nH]c2ccccc12)C(=O)N[C@H](C(=O)N[C@H](C(=O)N[C@H]1CSSC[C@@H](C(=O)N[C@@H](Cc2c[nH]c3ccccc23)C(=O)N2CCC[C@H]2C(=O)N[C@H](CCCCNC(=O)CN2CCN(CC(=O)O)CCN(CC(=O)O)CCN(CC(=O)O)CC2)C(N)=O)NC(=O)[C@H](CC(=O)O)NC(=O)[C@H](Cc2cnc[nH]2)NC(=O)[C@H](Cc2ccc3ccccc3c2)NC(=O)[C@H](CC(N)=O)NC(=O)[C@H](Cc2cccnc2)NC1=O)C1CCCCC1)[C@@H](C)O [compound 287, Ac-W-T-(Chg)-C(3)-(3Pya)-N-(2Nal)-H-D-C(3)-W-P-[D-Lys(DOTA)]-NH2] (Ac-WT[Chg]C[3Pal]N[2Nal]HDCWP[dK](DOTA)-NH2; disulfide 4-10)
CC(=O)N[C@@H](Cc1c[nH]c2ccccc12)C(=O)N[C@H](C(=O)N[C@H](C(=O)N[C@H]1CSSC[C@@H](C(=O)N[C@@H](Cc2c[nH]c3ccccc23)C(=O)N2CCC[C@H]2C(=O)N[C@H](CCCCNC(=O)CN2CCN(CC(=O)O)CCN(CC(=O)O)CCN(CC(=O)O)CC2)C(N)=O)NC(=O)[C@H](CC(=O)O)NC(=O)[C@H](Cc2cnc[nH]2)NC(=O)[C@H](Cc2ccc3ccccc3c2)NC(=O)[C@H](CC(N)=O)NC(=O)[C@H](Cc2cccnc2)NC1=O)C(C)(C)C)[C@@H](C)O [compound 288, Ac-W-T-(Tbg)-C(3)-(3Pya)-N-(2Nal)-H-D-C(3)-W-P-[D-Lys(DOTA)]-NH2] (Ac-WT[Tle]C[3Pal]N[2Nal]HDCWP[dK](DOTA)-NH2; disulfide 4-10)
CC(=O)N[C@@H](Cc1c[nH]c2ccccc12)C(=O)N[C@H](C(=O)N[C@@H](CC(C)(C)C)C(=O)N[C@H]1CSSC[C@@H](C(=O)N[C@@H](Cc2c[nH]c3ccccc23)C(=O)N2CCC[C@H]2C(=O)N[C@H](CCCCNC(=O)CN2CCN(CC(=O)O)CCN(CC(=O)O)CCN(CC(=O)O)CC2)C(N)=O)NC(=O)[C@H](CC(=O)O)NC(=O)[C@H](Cc2cnc[nH]2)NC(=O)[C@H](Cc2ccc3ccccc3c2)NC(=O)[C@H](CC(N)=O)NC(=O)[C@H](Cc2cccnc2)NC1=O)[C@@H](C)O [compound 289, Ac-W-T-(t-Bu-Ala)-C(3)-(3Pya)-N-(2Nal)-H-D-C(3)-W-P-[D-Lys(DOTA)]-NH2] (Ac-WT[tBuAla]C[3Pal]N[2Nal]HDCWP[dK](DOTA)-NH2; disulfide 4-10)
CC(=O)N[C@@H](Cc1c[nH]c2ccccc12)C(=O)N[C@H](C(=O)N[C@H](C(=O)N[C@H]1CSSC[C@@H](C(=O)N[C@@H](Cc2c[nH]c3ccccc23)C(=O)N2CCC[C@H]2C(=O)N[C@H](CCCCNC(=O)CN2CCN(CC(=O)O)CCN(CC(=O)O)CCN(CC(=O)O)CC2)C(N)=O)NC(=O)[C@H](CC(=O)O)NC(=O)[C@H](Cc2cnc[nH]2)NC(=O)[C@H](Cc2ccc3ccccc3c2)NC(=O)[C@H](CC(N)=O)NC(=O)[C@H](Cc2ccncc2)NC1=O)C1CCCCC1)[C@@H](C)O [compound 290, Ac-W-T-(Chg)-C(3)-(4Pya)-N-(2Nal)-H-D-C(3)-W-P-[D-Lys(DOTA)]-NH2] (Ac-WT[Chg]C[4Pal]N[2Nal]HDCWP[dK](DOTA)-NH2; disulfide 4-10)
CC[C@H](C)[C@H](NC(=O)[C@@H](NC(=O)[C@H](Cc1c[nH]c2ccccc12)NC(C)=O)[C@@H](C)O)C(=O)N[C@H]1CSSC[C@@H](C(=O)N[C@@H](Cc2c[nH]c3ccccc23)C(=O)N2CCC[C@H]2C(=O)N[C@H](CCCCNC(=O)CN2CCN(CC(=O)O)CCN(CC(=O)O)CCN(CC(=O)O)CC2)C(N)=O)NC(=O)[C@H](CC(=O)O)NC(=O)[C@H](Cc2cnc[nH]2)NC(=O)[C@H](Cc2c[nH]c3c(C)cccc23)NC(=O)[C@H](CC(N)=O)NC(=O)[C@H](CC(N)=O)NC1=O [compound 295, Ac-W-T-I-C(3)-N-N-(7-Me-W)-H-D-C(3)-W-P-[D-Lys(DOTA)]-NH2] (Ac-WTICNN[Trp(7-Me)]HDCWP[dK](DOTA)-NH2; disulfide 4-10)
